Calls of active or inactive are those of the source. The rule behind the calls is not given here.

In this assay the test system is Jurkat NF-kB reporter, luminescence. Kind of assay: Jurkat NF-kB signaling inhibitors – cell-based, luminescence, selectivity assay for B-cell receptor NF-kB inhibitor project, dose response (AID 489006).
`CC(=O)c1cn(CCOc2cc(C)ccc2C)c2ccccc12`: the IC50 (usually the concentration that inhibits the measured activity by half) is > 80 µM (inactive). In the case of `CCc1sc(C(=O)Nc2cccc(-n3cnnn3)c2)cc1C`, the IC50 was > 80 µM (inactive). Regarding `O=C(NNC(=O)C12CC3CC(CC(Br)(C3)C1)C2)c1ccccc1F`, the IC50 was > 80 µM (inactive). In the case of `O=C(CCCN1C(=O)S/C(=C\C=C\c2ccccc2)C1=O)Nc1ccc(O)cc1`, the IC50 is > 80 µM (inactive). Under `O=C1NC[C@H](c2ccccc2)OC(=O)[C@@H](Cc2ccc(F)cc2)C/C=C\C[C@H]1CC(=O)N(CCO)Cc1ccccc1` stands 11.8 µM; under `COc1cc(-c2cc(=O)c3c(O)c(OC)c(OC)c(OC)c3o2)cc(OC)c1OC`, > 80 µM (inactive); under `CCN(CC(=O)Nc1c(F)cccc1F)C(=O)c1cc([N+](=O)[O-])ccc1N1CCCCC1`, > 80 µM (inactive). For the compound `O=C(N/N=C/c1ccc(Cl)cc1Cl)c1ccc(-n2cnnn2)cc1`, the IC50 is > 80 µM (inactive). With `CC1CCc2c(sc3nc(C(C)(C)C)nc(N4CCN(C(=O)CCl)CC4)c23)C1` (stereo not given), the half-inhibitory concentration (IC50) was 1.27 µM.

Turning to `O=C(C1CCC1)N1CCN(S(=O)(=O)c2ccc([N+](=O)[O-])cc2)CC1`, the IC50 was > 80 µM (inactive). Turning to `CCN(CC)CCOC(=O)c1ccc(NC(=O)CCCN2C(=O)S/C(=C/c3ccc(OC)cc3)C2=S)cc1`, the half-inhibitory concentration (IC50) is 1.48 µM.

Consider `CC(C)Oc1ccc(C(=O)Nc2ccc(N(C)C)cc2)cc1`, for which the IC50 was > 80 µM (inactive). As for `CCn1c(CN2CCN(c3ccc(Cl)cc3)CC2)nc2ccccc21`, the IC50 was 39.9 µM (inactive). Regarding `COc1ccc(C(=O)N/N=C/c2sc(N3CCOCC3)nc2-c2ccccc2)cc1OC`, the IC50 is 35.5 µM (inactive). For the compound `COc1ccc(C(=O)Nc2ccccc2C(=O)NCc2ccco2)cc1OC`, the IC50 was 61.7 µM (inactive). Consider `CC(C)CN(C(=O)COC(=O)C12CC3CC(CC(C3)C1)C2)c1c(N)n(Cc2ccccc2)c(=O)[nH]c1=O`, for which the IC50 is 13.4 µM. Consider `COc1ccc(-c2noc(N3CCC(C(=O)Nc4ccc(OC)c(OC)c4)CC3)n2)cc1`, for which the IC50 was > 80 µM (inactive).

With `Cn1c(=O)cc(OCC(=O)N2CCC3(CC2)OCCO3)c2ccccc21`, the IC50 is > 80 µM (inactive). Regarding `Cc1ccc(S(=O)(=O)N2CCCCC2CCNC(=O)C(=O)NCc2ccncc2)cc1` (stereo not given), the IC50 was > 80 µM (inactive). As to `Cn1c(=O)cc(OCCCC(=O)N2CCCCC2)c2ccccc21`, the IC50 is > 80 µM (inactive).

`COc1ccc(N(CC(=O)N2CCN(c3ccc(Cl)cc3)CC2)S(=O)(=O)c2c(C)n[nH]c2C)cc1`: the IC50 was > 80 µM (inactive).

In the case of `O=c1c(C=NCCCO)c(-c2ccccc2)[nH]n1-c1nc2ccccc2s1`, the IC50 was 3.46 µM.

For `COc1ccc(/C=C\C(=O)O[C@@H]2C(O)C(O[C@@H]3OC(C)[C@H](O[C@@H]4OCC(O[C@H]5O[C@H](CO)[C@@H](O)C(O)C5O)C(O)C4O)C(O)C3O)[C@H](OC(=O)[C@]34CCC(C)(C)C[C@@H]3C3=CCC5[C@@]6(C)CC(O)C(O[C@@H]7OC(CO)C(O)[C@H](O)[C@H]7O)[C@@](C)(C(=O)O)C6CC[C@@]5(C)[C@]3(CO)CC4)O[C@H]2C)cc1` (stereo not given in full), the 50% inhibitory concentration (IC50) is 2.88 µM. For `COc1ccc(-c2noc(N3CCC(C(=O)Nc4cccc(OC)c4)CC3)n2)cc1`, the IC50 was > 80 µM (inactive). In the case of `O=C(Nc1cccc(Br)c1)c1ccc2c(c1)SC1=NS(=O)(=O)CCN12`, the IC50 is > 80 µM (inactive). The result for `COc1ccc(/C=C2/SC(=S)N(CCCC(=O)Nc3cccc(O)c3)C2=O)cc1` reads > 80 µM (inactive); that for `COC(=O)[C@@]12OC[C@]34[C@H]([C@@H](O)[C@@H]1O)[C@@]1(C)C(=O)C(O[C@@H]5OC(CO)[C@@H](O)[C@@H](O)[C@@H]5O)=C[C@@H](C)[C@@H]1C[C@H]3OC(=O)[C@H](OC(=O)/C=C(\C)C(C)(C)OC(C)=O)[C@@H]24` (stereo not given in full), 0.82 µM.

As for `COc1ccc(-c2ccc(C)cc2)cc1[C@H]1[C@H]2C=CC[C@@H](C)[C@@H]2C(=O)N1Cc1ccccc1`, the IC50 was > 80 µM (inactive).

As for `CCOC(=O)Cc1ccc(NC(=O)c2ccc(C(C)(C)C)cc2)cc1`, the IC50 was 0.25 µM. Under `CCn1c(=O)cc(SCC(=O)N2CCC(C)CC2)c2ccccc21` stands > 80 µM (inactive); under `Cc1c(CCC(=O)N2CCC(C(=O)O)(c3ccccc3)CC2)c(=O)oc2cc3oc4c(c3cc12)CCCC4`, 4.93 µM; under `Cc1cc(N(C)C)ccc1N=Nc1ccc(N)cc1`, > 80 µM (inactive).

Take `COCCCNC(=O)COc1ccc(-c2nccc(-c3ccccn3)n2)cc1`: the half-inhibitory concentration (IC50) was 8.68 µM. As to `COc1ccc(CC(=O)Nc2cccc(-c3ccc4nnc(C)n4n3)c2)cc1`, the IC50 was > 80 µM (inactive). Take `Cc1ccc(/C=C2\SC(=S)N(CCC(=O)NNC(=O)c3ccncc3)C2=O)cc1`: the IC50 is > 80 µM (inactive). `CCn1c(=O)cc(SCC(=O)N2CCOCC2)c2ccccc21`: the IC50 was > 80 µM (inactive). For the compound `COc1ccc(/C=C/c2ccccc2)cc1[C@H]1[C@H]2C=CC[C@@H](C)[C@@H]2C(=O)N1Cc1ccccc1`, the IC50 was > 80 µM (inactive). Regarding `CC(C)C(c1nnnn1Cc1ccccc1)N(Cc1ccco1)Cc1cccs1` (stereo not given), the IC50 is 73.6 µM (inactive). For `CC(C)C(=O)Nc1ccc(NC(=O)c2ccc3c(c2)OCO3)cc1`, the IC50 was > 80 µM (inactive). In the case of `CC(C)c1[nH]nc2c1C(c1ccco1)C(C#N)=C(N)O2` (stereo not given), the IC50 is 40 µM (inactive). As for `COc1ccccc1/C=C1\SC(=S)N(CCC(=O)Nc2cccc(O)c2)C1=O`, the IC50 was > 80 µM (inactive). `CCOC(=O)c1cc2c(=O)n3ccccc3nc2n(CC(C)C)c1=NC(=O)c1c(-c2c(F)cccc2Cl)noc1C`: the IC50 was > 80 µM (inactive). Consider `CN1C(=O)CC(c2ccco2)Sc2ccccc21` (stereo not given), for which the IC50 was > 80 µM (inactive).

As to `Cc1cc(C)cc(N2C(=O)NC(=O)/C(=C\c3cccn3-c3ccccc3)C2=O)c1`, the IC50 was 16.4 µM.

On to `Cc1c(CC(=O)NCCCC(=O)O)c(=O)oc2cc3c(cc12)CCC(C)(C)O3`, for which the IC50 is 4.17 µM.

For `Cc1ccc(-c2c[n+]3c(n2-c2ccccc2)SCC3)cc1`, the IC50 was > 80 µM (inactive). As to `Nc1ccc(-c2cc3ccccc3oc2=O)cc1`, the half-maximal inhibitory concentration (IC50) was 0.24 µM. Under `COc1ccc(C(=O)Nc2cccc(NC(=O)c3ccc(OC)c(OC)c3)n2)cc1OC` stands 9.7 µM; under `Cc1ccc(-c2nn3c(C)nnc3c3ccccc23)cc1S(=O)(=O)N1CCN(CCO)CC1`, 43.4 µM (inactive); under `COc1ccc(C(=O)Nc2nnc(SCC(=O)Nc3ccc(NC(C)=O)cc3)s2)c(OC)c1`, > 80 µM (inactive). `CC1=CC(C)(C)Nc2ccc(OC(=O)c3cccnc3)cc21`: the 50% inhibitory concentration (IC50) is 1.17 µM.

As for `CCc1ccc2[nH]c3nc(N/N=C/c4cccc(O)c4)nnc3c2c1`, the IC50 was > 80 µM (inactive). `Cc1csc(NC(=O)CCc2c(C)nc3cc(-c4ccc(Cl)cc4)nn3c2C)n1`: the IC50 is 0.36 µM.

In the case of `COC(=O)c1cc(NC(=O)Nc2cc(OC)ccc2OC)cc(C(=O)OC)c1`, the IC50 was 63.8 µM (inactive). The result for `CCn1c(=O)cc(SCC(=O)N2CCC3(CC2)OCCO3)c2ccccc21` reads > 80 µM (inactive); that for `Cc1c(CCC(=O)N2CCC(C(=O)O)CC2)c(=O)oc2cc3oc4c(c3cc12)CCCC4`, > 80 µM (inactive). In the case of `CC(=O)C1=NN(c2ccccc2)C(c2cccs2)N1c1ccc(N(C)C)cc1` (stereo not given), the IC50 is > 80 µM (inactive). As for `COc1ccc(-c2ccc(C(C)=O)cc2)cc1[C@H]1[C@H]2C=CC[C@@H](C)[C@@H]2C(=O)N1Cc1ccccc1`, the IC50 was > 80 µM (inactive).

Turning to `Cn1c(=O)n(C)c2cc(/C=C3/NC(=O)N(Cc4ccccc4)C3=O)ccc21`, the IC50 is > 80 µM (inactive). Regarding `O=C(Nc1nc2c(Br)cc(Br)cc2c(=O)s1)c1ccco1`, the concentration for half-maximal inhibition (IC50) was 2.52 µM. On to `COc1ccc(/C=C2/SC(=S)N(CCCC(=O)Nc3ccc(O)cc3)C2=O)cc1OC`, for which the IC50 was > 80 µM (inactive). With `CCOc1ccc(-n2c(SCC(=O)Nc3ccc4c(c3)OCCO4)nc3c(c2=O)SCC3)cc1`, the IC50 was > 80 µM (inactive). On to `C=CCn1c(O)c(C(CC)=NC(C)c2ccccc2)c(=O)[nH]c1=O` (stereo not given), for which the IC50 is 51.3 µM (inactive).

For the compound `CC(C)[C@H](N)c1nnc(SCC(=O)c2ccc(Cl)cc2)o1`, the IC50 was > 80 µM (inactive).

As for `COc1ccc(-c2noc(CCCC(=O)Nc3ccc(C(N)=O)cc3)n2)cc1`, the IC50 is 11.9 µM. As for `CCc1ccc(/C=C2\SC(=S)N(CCC(=O)NC3=NCCS3)C2=O)cc1`, the IC50 is 1.3 µM.

Consider `COc1cc(OC)c(/C=N/NC(N)=S)cc1Br`, for which the IC50 is > 80 µM (inactive). Take `CC1CCC/C=C/C2CC(O)CC2C(O)/C=C/C(=O)O1` (stereo not given): the IC50 was > 80 µM (inactive). Turning to `N=c1c(C(=O)NC2CCCC2)cc2c(=O)n3ccccc3nc2n1CCN1CCOCC1`, the IC50 was > 80 µM (inactive). Turning to `O=C(CCCN1C(=O)/C(=C/c2ccccc2Cl)SC1=S)NNC(=O)c1ccc(Cl)cc1`, the IC50 was 2.04 µM. As to `CCCNC(=O)CSCc1nc(-c2ccc(SC)cc2)oc1C`, the IC50 is > 80 µM (inactive). The result for `COc1ccc(NC(=O)CN(C)C(=O)C2(c3ccccc3)CCCC2)cc1` reads > 80 µM (inactive); that for `C=CCn1c(O)c(C(C)=NC(C)c2ccccc2)c(=O)[nH]c1=O` (stereo not given), > 80 µM (inactive).

For the compound `CCOC(=O)CNC(=O)CSc1nnc(NC(=O)c2ccc(C)cc2)s1`, the concentration for half-maximal inhibition (IC50) is 5.88 µM. Take `CC1CCN(C(=O)CCCOc2cc(=O)n(C)c3ccccc23)CC1`: the IC50 was > 80 µM (inactive).

Turning to `COc1ccc(-c2ccoc2)cc1[C@H]1[C@H]2C=CC[C@@H](C)[C@@H]2C(=O)N1Cc1ccccc1`, the IC50 is 50.4 µM (inactive). For `CCc1ccc(/C=C2/SC(=S)N(CCC(=O)Nc3cccc(C(=O)O)c3)C2=O)cc1`, the IC50 was > 80 µM (inactive). For the compound `Cc1ccc(-n2c(-c3ccccc3)c[n+]3c2CCc2ccccc2-3)c(C)c1`, the IC50 is 12.5 µM. In the case of `CCOc1ccc(-n2c(-c3ccccc3)c[n+]3c2CCCCC3)cc1`, the IC50 is > 80 µM (inactive). As for `Cc1cc(OCC(=O)Nc2ccc(CCO)cc2)c2c(C)c(C)c(=O)oc2c1`, the IC50 was > 80 µM (inactive).

The record behind these values is PubChem BioAssay AID489006 (Sanford-Burnham Center for Chemical Genomics, 2010).
